{"source": "patent US7314633B2", "about": "“Carboxylate-gated-nitroxide (CGN) compounds and compositions and methods of use thereof” (SynZyme Technologies LLC, priority 2001, dated 2008)", "key": {"[1]": {"conditions": "gold standard, previously shown; cited from earlier work"}, "[2]": {"test": "In vivo plasma half-life by EPR, co-administration of 14N E-TOPS and 15N Tempol", "experimental": "Plasma half-life is measured by collecting the spectrum each minute for 60 to 90 minutes."}, "[3]": {"test": "Acute toxicity LD50 / survival rate in mice", "assay_type": "in vivo", "conditions": "mouse, in vivo", "excerpt": "(§1) As noted above, the practical, clinical application of unbound, small molecule nitroxides has been limited by the reduced activity in vivo and comparatively short in vivo half-life. The result of the reduced in vivo half-life is the need to administer a larger dose to achieve the same therapeutic or diagnostic effect."}, "mice": {"tested_on": "mice", "test": "Acute toxicity LD50 / survival rate in mice", "assay_type": "in vivo", "conditions": "mice, dosage of 2.0 mmol/kg", "excerpt": "as §1"}, "[4]": {"tested_on": "cultured rat cortical neurons", "test": "Hemoglobin toxicity in cultured rat cortical neurons (MTT)", "assay_type": "cell-based", "conditions": "hemoglobin 10 uM, 24 hours", "experimental": "E-TOPS is neuroprotective in a model of hemorrhagic transformation in stroke. Primary neuronal cultures were made from forebrains of fetal rat pups (embryonic day 15). The cells were dispersed by repeated mechanical trituration in neuronal culture medium (MEM Eagle (Sigma, M4526), supplemented with glutamine (2 mM), penicilin-streptomycine (50 Units/ml-0.05mg/ml), heat-inactivated horse serum (10%), fetal bovine serum (10%), glucose (0.5% or 28 mM). Following centrifugation (900 g; 5 min), the cells were placed onto poly-L-lysine-coated 96 well plates at a density of […]. Hemoglobin in saline was added at 10 uM final concentration and ETOPS were added at 10 uM, 1 uM, and 0.1 uM final concentration. 24 hours after incubation neuronal viability was quantitatively determined using the colorimetric MTT assay. MTT was added to each well such that the final concentration of the dye was 0.15 mg/ml. Plates were then returned to the incubator for 1 hour at which time unincorporated MTT was removed, and the plates allowed to air dry. The purple formazan product present in viable cells was then dissolved by adding acidified isopropanol (with 0.1 N HCl in) and the absorbance intensity (540 nm) was measured using a 96 well plate reader. % Control=(Test A540/Mean Control)×100%."}, "[5]": {"test": "S-band EPR imaging of penetration and compartmentalization in human skin", "assay_type": "in vivo", "conditions": "human volunteer forearm, 3 μL 100 mM in DMSO, topical, by eight hours", "experimental": "Preliminary S-band EPR spectroscopy and imaging experiments using DETOPS were performed on the skin of a human volunteer. […] Five minutes later, when the deposited solution dried, a specially designed positioning holder with a 7 mm diameter well and bottom disk that locked into a well in the resonator cap was attached to the skin to fix this region of skin to the surface resonator See, “In vivo EPR Imaging of a Distribution and Metabolism of Nitroxide Radicals in Human Skin,” He et al., J. of Magnetic Resonance 148, 155-164 (2001). EPR and EPRI measurements were then started. Measurements on the volunteer were performed for 15 to 20 minutes periods after which there were 30-minute rest periods in which the volunteer removed the arm from the resonator and the magnet. This holder fixed the skin positioning and assured a constant filling factor of the loaded resonator. The positioning holder was left attached to the arm for the entire series of measurements lasting up to 8 hours.\nReferring to FIG. 23, a color-coded image of CNO penetration and compartmentalization in human skin is shown. […] The measurements were performed using S-band (2.2 GHz) EPR imaging system with a specially designed surface resonator as described in He et al., J. of Magnetic Resonance 148, 155-164 (2001). The dotted line marks the surface of the skin. […]"}, "Rhino mouse": {"tested_on": "Rhino mouse", "test": "Anti-wrinkle effect in Rhino mouse exposed to UVB", "assay_type": "in vivo", "conditions": "compared with Retin-A", "experimental": "To determine the advantage of CGN compared to commercially available topical therapies, BE-TOPS, Retin-A, and a placebo were administered to the skin of mice exposed to alternate days of UVB radiation."}, "[6]": {"test": "Water/octanol partition measured by EPR", "assay_type": "physicochemical", "conditions": "15 minutes, TOPS = presumed product after NaOH hydrolysis of DE-TOPS", "experimental": "(§2) After 15 minutes, a 40 μl sample of water or oil was taken for EPR spectral analysis. […] The solution was neutralized with hydrochloric acid and added to 1 ml of water and 2 ml of octanol. The mixture was allowed to partition, and after 15 minutes, a 40 μl sample of water or oil was taken for EPR spectral analysis. EPR spectral were taken using a Varian E9 spectrophotometer. Sweep width was 100 G, frequency was 9.535 GHz, microwave power was […] and the modulation frequency was 100 Hz."}, "hairless mice": {"tested_on": "hairless mice", "experimental": "Topical application was daily 10 minutes prior to UVB radiation. UVB dose was 200 mJ/cm2 during 15 minutes. UVB lamp has spectrum distribution of 290-310 nm at 80% below 310 nm at 20%.\nSame protocol as in example 13 was used for this study."}, "[7]": {"test": "Inhibition of peroxynitrite-dependent nitration of HPA", "assay_type": "biochemical", "conditions": "1 mM HPA, 1 mM peroxynitrite, pH 6.5", "experimental": "Peroxynitrite was made by a procedure described previously. Solution of 1 mM 4-hydroxyphenylacetic acid (HPA, Sigma) were made in 100 mM sodium phosphate at pH 6.5. […] Peroxynitrite was added at a final concentration of 1 mM to start the nitration. […] The nitration was followed spectrophotometrically at 405 nm. The concentration of 4-hydroxy-3-nitrophenylacetate was determined spectrophotometrically (430=4400 M^−1 cm^−1) after the pH of reaction mixtures were increased to 10-11 with NaOH."}, "[8]": {"tested_on": "cultured rat cortical neurons", "test": "SIN-1 (peroxynitrite generator) toxicity in cultured rat cortical neurons (MTT)", "assay_type": "cell-based", "conditions": "SIN-1 1 mM, compound added 15 minutes prior", "experimental": "Primary neuronal cultures were made from forebrains of fetal rat pups (embryonic day 15). The cells were dispersed by repeated mechanical trituration in neuronal culture medium (MEM Eagle (Sigma, M4526), supplemented with glutamine (2 mM), penicilin-streptomycine (50 Units/ml-0.05 mg/ml), heat-inactivated horse serum (10%), fetal bovine serum (10%), glucose (0.5% or 28 mM). Following centrifugation (900 g; 5 min), the cells were placed onto poly-L-lysine-coated 96 well plates at a density of […]. Cytotoxicity was induced in the cells according to a published procedure (Carroll et al 2000). SIN-1 (3-morpholinosydnonimine, Sigma), a PN generator, was dissolved in 50 mM phosphate (pH 5.0) just prior to use, and added to each well to give the final concentration of 1 mM. […] Neuronal viability was quantitatively determined using the colorimetric MTT assay. MTT was added to each well such that the final concentration of the dye was 0.15 mg/ml. Plates were then returned to the incubator for 1 hour at which time unincorporated MTT was removed, and the plates allowed to air dry. The purple formazan product present in viable cells was then dissolved by adding acidified isopropanol (with 0.1 N HCl in) and the absorbance intensity (540 nm) was measured using a 96 well plate reader. % Control=(Test A540/Mean Control)×100%."}, "[9]": {"test": "Chemical hydrolysis of esters by NaOH or KOH, followed by EPR", "assay_type": "physicochemical", "conditions": "sodium hydroxide (NaOH), aqueous, EPR pre- and post-hydrolysis", "experimental": "as §2\n20 mg of ^14N-^15N-TE-TOPS was mixed in 1 ml of 10 mM KOH and allowed to incubate overnight at room temperature. The solution was neutralized with hydrochloric acid. EPR spectral were taken using a Varian E9 spectrophotometer. Sweep width was 100 G, frequency was 9.535 GHz, microwave power was […] and the modulation frequency was 100 Hz."}, "[10]": {"test": "Metabolism and excretion after topical application (EPR of urine and plasma)", "assay_type": "in vivo, mouse", "conditions": "after 6 hours; 10 day daily topical application"}, "human Y-79 cells": {"tested_on": "human Y-79 cells", "test": "TNF-α induced apoptosis of Y-79 cells (annexin V flow cytometry)", "assay_type": "cell-based", "conditions": "Y-79 cell line, E-TOPS 100 μg/ml, TNF-α 5.0 ng/ml, 6, 24 and 48 hours", "experimental": "The UV light induced apoptosis may be measured by a model in which apoptosis is induced by exposure to tumor necrosis factor alpha (TNF-α). […] Cultured human Y-79 cells were maintained at pH 7.4 in culture flasks in a mixture of amphotericin/penicillin/streptomycin treated (1% v/v) RPMI 1640 media with L-glutamine and 10% fetal bovine serum in an incubator under 10%-CO2/90%-air brood conditions at 37 degrees Celsius and 20% humidity. […] From this stock solution, 10 μl was added to 1 ml of the cell suspension solution so that the final concentration of ETOPS was 100 μg/ml of ETOPS. Human TNF-μ(10 μg/1 ml) was used to prepare serial media dilutions to obtain TNF-α concentrations of 5.0 ng/ml. Cell densities and viability were determined by trypan blue exclusion assay on a Zeiss inverted microscope to ensure cell concentrations prior to cytometric assaying. […]\nFlow cytometric methods were employed to take advantage of annexin V's reversible and calcium-dependent binding to negatively charged phosphatidylserine (PS) residues in a 1:50 annexin to PS ratio. […] Total samplings averaged 5000 cell events counted out of sample populations averaging well over 1.0×10^6 cells/ml with statistics and regression analysis given for each set of sample quadrants using CellQuest softvare. […]"}}}
{"molecule": "CC1(C)CC(O)CC(C)(C)N1[O]", "note": "[Tempol, 4-hydroxy-2,2,6,6-tetramethylpiperidine-1-oxyl]", "values": [{"measurement": "prevention of nitration of HPA by peroxynitrite in vitro", "setting": "[1]", "result": "prevent the nitration"}, {"measurement": "half-life", "setting": "[2]; mouse, in vivo, ip, 80 mg/kg", "result": "> 40", "unit": "min"}, {"measurement": "LD50", "setting": "[3]", "result": 375, "unit": "mg/kg"}, {"measurement": "survival rate", "setting": "mice", "result": "zero survival rate"}]}
{"molecule": "CCOC(=O)CC(C(=O)OCC)=C1CC(C)(C)N([O])C(C)(C)C1", "note": "[DE-TOPS, Di-ethyl-2,2,6,6-tetramethyl-1-oxy-4-piperidylidene-succinate]", "values": [{"measurement": "inhibition of hemoglobin-induced toxicity of cortical neurons", "setting": "[4]", "result": "dose dependent inhibition"}, {"measurement": "distribution in skin layers compared to tempone (1-D EPR spatial image)", "setting": "[5]", "result": "enhanced visual distribution throughout the dermis and epidermis"}, {"measurement": "UVB sensitivity of treated skin", "setting": "Rhino mouse", "result": "not UVB sensitive"}, {"measurement": "partition coefficient (LogP)", "setting": "[6]", "result": 1.7}, {"measurement": "skin thickening induced by UVB (histopathology)", "setting": "hairless mice; 100 mM in petroleum base, topical daily 10 minutes prior to UVB, 11 days, 200 mJ/cm2", "result": "dramatically reduces skin thickening"}, {"measurement": "UVB light induced skin thickening, hemorrhage, inflammation", "setting": "hairless mice; applying pre and post radiation in mice", "result": "reduces UVB light induced skin thickening, hemorrhage, inflammation"}, {"measurement": "UVB induced skin lesion, chronic", "setting": "hairless mice; same mice kept for 4 month, applied 2 hour before UVB radiation", "result": "inhibited"}, {"measurement": "inhibition of nitration of HPA by peroxynitrite", "setting": "[7]", "result": "inhibited"}, {"measurement": "inhibition of peroxynitrite-induced (SIN-1) toxicity on cortical neurons", "setting": "[8]", "result": "dose dependent inhibition"}, {"measurement": "hydrolysis of DE-TOPS to TOPS", "setting": "[9]", "result": "near complete conversion"}, {"measurement": "EPR signal in urine compared with plasma", "setting": "[10]", "result": "stronger EPR signal"}]}
{"molecule": "CC1(C)CC(=C(CC(=O)O)C(=O)O)CC(C)(C)N1[O]", "note": "[TOPS, 2,2,6,6-tetramethyl-1-oxyl-piperidinene-4-succinate]", "values": [{"measurement": "inhibition of hemoglobin-induced toxicity of cortical neurons", "setting": "[4]", "result": "dose dependent inhibition"}, {"measurement": "partition coefficient (LogP)", "setting": "[6]", "result": "−0.9"}, {"measurement": "inhibition of nitration of HPA by peroxynitrite", "setting": "[7]", "result": "inhibited"}, {"measurement": "inhibition of peroxynitrite-induced (SIN-1) toxicity on cortical neurons", "setting": "[8]", "result": "dose dependent inhibition"}]}
{"molecule": "monoethyl-2,2,6,6-tetramethyl-1-oxy-4-piperidylidene-succinate [E-TOPS]", "values": [{"measurement": "inhibition of hemoglobin-induced toxicity of cortical neurons", "setting": "[4]", "result": "dose dependent inhibition"}, {"measurement": "neuronal viability", "setting": "[4]; ETOPS at 10 uM, 1 uM, 0.1 uM", "result": "increased neuronal viability"}, {"measurement": "in vivo half-life compared to Tempol", "setting": "[2]; intravenous, intramuscular, oral and intraperitoneal administration at 200 mg/kg", "result": "increased in vivo half-life compared to Tempol"}, {"measurement": "in vivo plasma half-life compared to Tempol", "setting": "[2]; mice, administered orally, 125 mg/kg E-TOPS and 80 mg/kg Tempol", "result": "extended"}, {"measurement": "in vivo plasma half-life compared to Tempol", "setting": "[2]; mice, co-administrated intravenously", "result": "extended"}, {"measurement": "time with substantially higher activity than Tempol in plasma", "setting": "[2]; mice, i.p., 125 mg/kg E-TOPS co-administered with Tempol", "result": "at least 80 minutes"}, {"measurement": "in vivo plasma half-life compared to Tempol", "setting": "[2]; mice, intramuscular co-administration", "result": "dramatically extended over Tempol for at least 60 minutes"}, {"measurement": "inhibition of nitration of HPA by peroxynitrite", "setting": "[7]", "result": "inhibited"}, {"measurement": "inhibition of peroxynitrite-induced (SIN-1) toxicity on cortical neurons", "setting": "[8]", "result": "dose dependent inhibition"}, {"measurement": "apoptosis induced by TNF-α", "setting": "human Y-79 cells", "result": "reduces apoptosis"}]}
